pKd: −log10 of the molar value.
What was measured:
XIAP BIR-3 = target: T1, XIAP BIR-3 (Homo sapiens, UniProt P98170); assay: Fluorescence polarization binding affinity to XIAP BIR-3 (competition with AbuRPF-K(5-Fam)-NH2); conditions: 5 nM labeled peptide, 40 nM BIR3, 15 min at RT, pH 7.5; reported as ranges
T1 construct: 40 nM of the respective IAP BIR3
Outline: (§1)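 Test peptides at varied concentrations competed with 5 nM fluorescent Smac-mimetic tracer for 40 nM BIR3 domain, 15 min at RT in 0.1M potassium phosphate pH 7.5 with […] bovine g-globulin. Polarization (mP) read at 485/520 nm; KD reported in bins (A=<0.1 μM, B=0.1–1 μM, C>1–10 μM, D=>10 μM).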

cIAP-1 BIR-3 = cIAP-1 BIR-3 (Homo sapiens, UniProt Q13490); assay: Fluorescence polarization binding affinity to cIAP-1 BIR-3 (competition with AbuRPF-K(5-Fam)-NH2); conditions: 5 nM labeled peptide, 40 nM BIR3, 15 min at RT, pH 7.5; reported as ranges; read-out: KD (c-IAP-1 BIR3)
Outline: as §1

SK-OV-3 cells = assay: Growth inhibition of ovarian cancer cell line SK-OV-3 (MTT assay, cell survival); format: cell-based; conditions: Homo sapiens, drug concentration that results in 50% cell survival, 72 hrs incubation, reported as ranges
Outline: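 After overnight seeding in McCoy's medium with 10% FBS, SK-OV-3 cells were exposed to compound at 0.003-10 μM for 72 hrs at 37° C. MTT was then added for 3 h, with DMSO solubilization and OD read at 535 nm. CC50 is the concentration giving 50% survival relative to untreated control, reported as ranges.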

T1 sequence (P98170 241-356 limits assumed): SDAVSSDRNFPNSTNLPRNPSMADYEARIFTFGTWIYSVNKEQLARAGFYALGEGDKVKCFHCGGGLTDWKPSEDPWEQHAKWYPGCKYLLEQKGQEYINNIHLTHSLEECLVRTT
cIAP-1 BIR-3, sequence (Q13490 266-352 limits assumed): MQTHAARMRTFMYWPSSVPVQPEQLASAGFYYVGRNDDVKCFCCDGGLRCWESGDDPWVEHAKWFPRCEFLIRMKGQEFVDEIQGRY

| Structure (SMILES) | pKd (XIAP BIR-3) | pKd (cIAP-1 BIR-3) | CC50 (SK-OV-3 cells) [µM] |
| --- | --- | --- | --- |
| CN[C@@H](C)C(=O)N[C@H](C(=O)N1CC[C@@H]2[C@H]1[C@H](c1c[nH]c3cc(F)ccc13)CN2S(C)(=O)=O)[C@@H](C)O [Example 55, N-{1-[6-(6-Fluoro-1H-indol-3-yl)-4-methanesulfonyl-hexahydro-pyrrolo[3,2-b]pyrrole-1-carbonyl]-2-hydroxy-propyl}-2-methylamino-propionamide] | < 5.00 | 5.00 to 6.00 | > 10 |
| CN[C@@H](C)C(=O)N[C@H](C(=O)N1CC[C@@H]2[C@H]1[C@@H](c1c[nH]c3cc(F)ccc13)CN2S(C)(=O)=O)C(C)O (stereo partly drawn) [Example 56] | > 7.00 | > 7.00 | < 0.1 |
| CN[C@@H](C)C(=O)N[C@H](C(=O)N1CC[C@@H]2[C@H]1[C@H](c1c[nH]c3cc(F)ccc13)CN2S(C)(=O)=O)[C@@H](C)OC [Example 57, N-{1-[6-(6-Fluoro-1H-indol-3-yl)-4-methanesulfonyl-hexahydro-pyrrolo[3,2-b]pyrrole-1-carbonyl]-2-methoxy-propyl}-2-methylamino-propionamide] | < 5.00 | 6.00 to 7.00 | > 10 |
| CN[C@@H](C)C(=O)N[C@H](C(=O)N1CC[C@@H]2[C@H]1[C@@H](c1c[nH]c3cc(F)ccc13)CN2S(C)(=O)=O)[C@@H](C)OC [Example 58, N-{1-[6-(6-Fluoro-1H-indol-3-yl)-4-methanesulfonyl-hexahydro-pyrrolo[3,2-b]pyrrole-1-carbonyl]-2-methoxy-propyl}-2-methylamino-propionamide] | > 7.00 | > 7.00 | < 0.1 |
| CN[C@@H](C)C(=O)N[C@H](C(=O)N1CC[C@@H]2[C@H]1[C@@H](c1c[nH]c3cc(F)ccc13)CN2C(C)=O)C1CCCCC1 [Example 59, N-{2-[4-Acetyl-6-(6-fluoro-1H-indol-3-yl)-hexahydro-pyrrolo[3,2-b]pyrrol-1-yl]-1-cyclohexyl-2-oxo-ethyl}-2-methylamino-propionamide] | > 7.00 | > 7.00 | < 0.1 |
| CC[C@H](NC(=O)[C@H](C)NC)C(=O)N1CC[C@@H]2[C@H]1[C@@H](c1c[nH]c3cc(F)ccc13)CN2C(C)=O [Example 60, N-{1-[4-Acetyl-6-(6-fluoro-1H-indol-3-yl)-hexahydro-pyrrolo[3,2-b]pyrrole-1-carbonyl]-propyl}-2-methylamino-propionamide] | > 7.00 | > 7.00 | < 0.1 |
| CN[C@@H](C)C(=O)N[C@H](C(=O)N1CC[C@@H]2[C@H]1[C@@H](c1c[nH]c3cc(F)ccc13)CN2C(C)=O)C(C)C [Example 61, N-{1-[4-Acetyl-6-(6-fluoro-1H-indol-3-yl)-hexahydro-pyrrolo[3,2-b]pyrrole-1-carbonyl]-2-methyl-propyl}-2-methylamino-propionamide] | > 7.00 | > 7.00 | < 0.1 |
| CN[C@@H](C)C(=O)N[C@H](C(=O)N1CC[C@@H]2[C@H]1[C@@H](c1c[nH]c3cc(F)ccc13)CN2C(C)=O)C(C)(C)C [Example 62, N-{1-[4-Acetyl-6-(6-fluoro-1H-indol-3-yl)-hexahydro-pyrrolo[3,2-b]pyrrole-1-carbonyl]-2,2-dimethyl-propyl}-2-methylamino-propionamide] | > 7.00 | > 7.00 | < 0.1 |
| CN[C@@H](C)C(=O)N[C@@H](CO)C(=O)N1CC[C@@H]2[C@H]1[C@@H](c1c[nH]c3cc(F)ccc13)CN2C(C)=O [Example 63, N-{2-[4-Acetyl-6-(6-fluoro-1H-indol-3-yl)-hexahydro-pyrrolo[3,2-b]pyrrol-1-yl]-1-hydroxymethyl-2-oxo-ethyl}-2-methylamino-propionamide] | > 7.00 | > 7.00 | 1 to 10 |
| CN[C@@H](C)C(=O)N[C@@H](COC)C(=O)N1CC[C@@H]2[C@H]1[C@@H](c1c[nH]c3cc(F)ccc13)CN2C(C)=O [Example 64, N-{2-[4-Acetyl-6-(6-fluoro-1H-indol-3-yl)-hexahydro-pyrrolo[3,2-b]pyrrol-1-yl]-1-methoxymethyl-2-oxo-ethyl}-2-methylamino-propionamide] | 6.00 to 7.00 | > 7.00 | 0.1 to 1 |
| CN[C@@H](C)C(=O)N[C@H](C(=O)N1CC[C@@H]2[C@H]1[C@@H](c1c[nH]c3cc(F)ccc13)CN2C(C)=O)[C@@H](C)O [Example 65, N-{1-[4-Acetyl-6-(6-fluoro-1H-indol-3-yl)-hexahydro-pyrrolo[3,2-b]pyrrole-1-carbonyl]-2-hydroxy-propyl}-2-methylamino-propionamide] | > 7.00 | > 7.00 | 0.1 to 1 |
| CN[C@@H](C)C(=O)N[C@H](C(=O)N1CC[C@@H]2[C@H]1[C@@H](c1c[nH]c3cc(F)ccc13)CN2C(C)=O)[C@@H](C)OC [Example 66, N-{1-[4-Acetyl-6-(6-fluoro-1H-indol-3-yl)-hexahydro-pyrrolo[3,2-b]pyrrole-1-carbonyl]-2-methoxy-propyl}-2-methylamino-propionamide] | > 7.00 | > 7.00 | < 0.1 |
| CC[C@H](NC(=O)[C@H](C)NC)C(=O)N1CC[C@@H]2[C@H]1[C@@H](c1c[nH]c3ccc(F)cc13)CN2C(C)=O [Example 67, N-{1-[4-Acetyl-6-(5-fluoro-1H-indol-3-yl)-hexahydro-pyrrolo[3,2-b]pyrrole-1-carbonyl]-propyl}-2-methylamino-propionamide] | > 7.00 | > 7.00 | 0.1 to 1 |
| CN[C@@H](C)C(=O)N[C@H](C(=O)N1CC[C@@H]2[C@H]1[C@@H](c1c[nH]c3ccc(F)cc13)CN2C(C)=O)C(C)C [Example 68, N-{1-[4-Acetyl-6-(5-fluoro-1H-indol-3-yl)-hexahydro-pyrrolo[3,2-b]pyrrole-1-carbonyl]-2-methyl-propyl}-2-methylamino-propionamide] | > 7.00 | > 7.00 | < 0.1 |
| CN[C@@H](C)C(=O)N[C@H](C(=O)N1CC[C@@H]2[C@H]1[C@@H](c1c[nH]c3ccc(F)cc13)CN2C(C)=O)C(C)(C)C [Example 69, N-{1-[4-Acetyl-6-(5-fluoro-1H-indol-3-yl)-hexahydro-pyrrolo[3,2-b]pyrrole-1-carbonyl]-2,2-dimethyl-propyl}-2-methylamino-propionamide] | > 7.00 | > 7.00 | < 0.1 |
| CN[C@@H](C)C(=O)N[C@H](C(=O)N1CC[C@@H]2[C@H]1[C@@H](c1c[nH]c3ccc(F)cc13)CN2C(C)=O)C1CCCCC1 [Example 70, N-{2-[4-Acetyl-6-(5-fluoro-1H-indol-3-yl)-hexahydro-pyrrolo[3,2-b]pyrrol-1-yl]-1-cyclohexyl-2-oxo-ethyl}-2-methylamino-propionamide] | > 7.00 | > 7.00 | < 0.1 |
| CN[C@@H](C)C(=O)N[C@H](C(=O)N1CC[C@@H]2[C@H]1[C@@H](c1c[nH]c3ccc(F)cc13)CN2C(C)=O)[C@@H](C)OC [Example 71, N-{1-[4-Acetyl-6-(5-fluoro-1H-indol-3-yl)-hexahydro-pyrrolo[3,2-b]pyrrole-1-carbonyl]-2-methoxy-propyl}-2-methylamino-propionamide] | > 7.00 | > 7.00 | < 0.1 |
| CN[C@@H](C)C(=O)N[C@@H](COC)C(=O)N1CC[C@@H]2[C@H]1[C@@H](c1c[nH]c3ccc(F)cc13)CN2C(C)=O [Example 72, N-{2-[4-Acetyl-6-(5-fluoro-1H-indol-3-yl)-hexahydro-pyrrolo[3,2-b]pyrrol-1-yl]-1-methoxymethyl-2-oxo-ethyl}-2-methylamino-propionamide] | > 7.00 | > 7.00 | 1 to 10 |
| CN[C@@H](C)C(=O)N[C@@H](CO)C(=O)N1CC[C@@H]2[C@H]1[C@@H](c1c[nH]c3ccc(F)cc13)CN2C(C)=O [Example 73, N-{2-[4-Acetyl-6-(5-fluoro-1H-indol-3-yl)-hexahydro-pyrrolo[3,2-b]pyrrol-1-yl]-1-hydroxymethyl-2-oxo-ethyl}-2-methylamino-propionamide] | > 7.00 | > 7.00 | 1 to 10 |
| CN[C@@H](C)C(=O)N[C@H](C(=O)N1CC[C@@H]2[C@H]1[C@@H](c1c[nH]c3ccc(F)cc13)CN2C(C)=O)[C@@H](C)O [Example 74, N-{1-[4-Acetyl-6-(5-fluoro-1H-indol-3-yl)-hexahydro-pyrrolo[3,2-b]pyrrole-1-carbonyl]-2-hydroxy-propyl}-2-methylamino-propionamide] | > 7.00 | > 7.00 | 0.1 to 1 |
| CN[C@@H](C)C(=O)N[C@H](C(=O)N1CC[C@@H]2[C@H]1[C@@H](c1c[nH]c3cc(F)ccc13)CN2c1ncccn1)C1CCCCC1 [Example 75, N-{1-Cyclohexyl-2-[6-(6-fluoro-1H-indol-3-yl)-4-pyrimidin-2-yl-hexahydro-pyrrolo[3,2-b]pyrrol-1-yl]-2-oxo-ethyl}-2-methylamino-propionamide] | > 7.00 | > 7.00 | < 0.1 |

From patent US8399683B2 (TetraLogic Pharmaceuticals, priority 2008, dated 2013)
